Laboratory results published in patent US20250288553A1, “Antimicrobial Compositions and Uses for Treatment of Clostridioides difficile, Mycobacterium tuberculosis, and Enterococcus faecalis Infection” (priority 2022, published 2025).
pIC50: −log10 of the molar value. In brackets after ≈: the same amount, converted by molar mass. Several values for one entry are separate records, joined by “and”; a condition that tells them apart may be missing. Equal entries are not always repeated. Where two headings read alike, the source gives them in different places.

Legend:
[1] = tested on: dormant Mtb-lux (Mycobacterium tuberculosis CDC1551 with pMV306hsp+LuxG13); assay type: cell-based; conditions: for R/D (MICR/MICD, Mtb-lux): ratio replicating MIC to dormant MIC
[2] = tested on: J774A.1 (murine macrophage-like) cell line; assay: Cytotoxicity assay J774A.1; assay type: cell-based
Protocol: (§1) To evaluate the selectivity of the top six compounds from the Mtb-lux activity screen (Table 2), cytotoxicity for two different mammalian cell lines was determined. The IC50 was calculated for each compound against J774A.1 and HepG2 cell lines. The selectivity index (SI) for both replicating and dormant conditions was then calculated by taking the IC50 and dividing it by the corresponding MIC (SIR=IC50/MICR, SID=IC50/MICD)^40. Consistent with the experience, the J774 macrophage cell line was more sensitive to all compounds tested. […] Based on these observations, this triacetate protected puupehenone represents a promising candidate for further optimization.
(§2) Cytotoxicity assay: Cytotoxicity was assessed using J774A.1 (murine macrophage-like) and HepG2 (human liver carcinoma) cell lines using 2-fold dilution of the compounds as described previously^42, 43. IC50 values were determined using nonlinear regression fitting of the databy GraphPad Prism. The selectivity Index (SI) was calculated as IC50/MIC.

[3] = Cytotoxicity assay J774A.1; assay type: cell-based, murine; conditions: mouse, J774A.1 macrophage-like cells; J774A.1 cells; read-out: Cytotoxicity (IC50) J774
Protocol: as §1, §2

[4] = tested on: Mycobacterium tuberculosis H37Ra ATCC 25177; assay: MIC against Mtb H37Ra, resazurin microtiter assay (REMA); assay type: cell-based; conditions: for MIC: Mycobacterium tuberculosis, 336 h
[5] = tested on: HepG2 (human liver carcinoma) cell line; assay: Cytotoxicity assay HepG2
Cytotoxicity assay HepG2 = conditions: human
[6] = tested on: TcdA production in C. difficile NAP1; assay: Toxin analysis: extracellular TcdA of C. difficile NAP1 at sub-MICs, western blot; assay type: cell-based, Clostridioides difficile; parameters: Concentration at which TcdA was undetectable: unit not given here; conditions: for Effect on TcdA toxin production: NAP1 challenged with 0.5×, 0.25×, 0.125× MIC, 48 h, TcdA normalized to total protein
Protocol: After a 48 h incubation of NAP1 challenged with several dilutions of each compound, extracellular toxin in spent media derived from triplicate cultures was assessed with western blots using a monoclonal antibody against TcdA. Semi-quantitative analysis of toxin levels was performed via densitometry of TcdA band intensity with respect to total protein as measured by the Bradford assay. Semi-quantitative plots are shown below each representative blot. (a) Toxin production in BHIS (NAP1) and BHIS with 5% DMSO (vehicle). (b) Toxin production from cultures challenged with sub-MICs of fidaxomicin, (c) vancomycin, and (d-j) (+)-puupehenone and selected derivatives. Data points represent the means of adjusted toxin levels derived from triplicate cultures, while error bars represent standard deviations. Statistical analysis was performed in GraphPad Prism 8 using unpaired t-tests. *P<0.05; **P<0.01.
To account for changes in biomass, a semi-quantitative analysis of TcdA production was performed by normalizing the target bands from representative western blots to the amount of total protein in each sample.
Toxin analysis. Toxin production was determined by analyzing the amount of extracellular toxin in the cultures from the ASTs described above. At 48 h, total protein of each culture was determined with the Bradford assay using bovine serum albumin (BSA) as a standard.^53 Cultures were then centrifuged at 5,000×g for 5 minutes to clear the supernatants which were separately collected and frozen at −20° C. After thawing at room temperature, cell-free supernatants were mixed 1:1 with 2× Laemmli buffer and incubated in a sand bath at 100° C. for 5 minutes. Twenty microliters of denatured samples were loaded onto 7.5% Tris-glycine gels and electrophoresed at 200 V for 1 h. After electrophoresis, samples were transferred to polyvinylidene difluoride membranes at 4° C. overnight at 30 V. Membranes were incubated in a blocking buffer (20 mM Tris-HCl, 150 mM NaCl, 0.01 mM ethylenediaminetetraacetic acid, 0.1% Tween 20, 1% BSA, [pH 7.5]) for 1 h at room temperature. TcdA was detected with a monoclonal mouse anti-TcdA antibody (PCG4.1, Novus Biologicals) and a rabbit anti-mouse antibody conjugated with alkaline phosphatase. Blots were visualized with a ChemiDoc XRS+ imaging system (Bio-Rad).
Semi-quantitative analysis of TcdA was performed using Image Lab 6.0 software (Bio-Rad). Briefly, after subtracting background noise, peaks corresponding to the target band were selected with the software's Lane Profile tool. The density of each peak generated a value (arbitrary units) that was normalized to the total protein amount of each respective sample. […] These losses of activity prevented us from performing statistical analysis from multiple experiments, as the sub-MICs were not always the same. Since there were no changes to the methodology described, several other reasons could have accounted for decreased activity, such as compound stability, freeze-thaw, and adherence to plastic. Nevertheless, the toxin results were reproducible, irrespective of the exact sub-MICs on different days.

[7] = tested on: Clostridioides difficile NAP1; assay: MIC against C. difficile NAP1, modified broth microdilution; conditions: for MIC: Clostridioides difficile, NAP1, 48 h, read-out: MIC C. difficile, NAP1, modified broth microdilution, 48 h, anaerobic; for MIC C. difficile: NAP1, modified broth microdilution, 48 h, anaerobic
[8] = tested on: replicating Mtb-lux (Mycobacterium tuberculosis CDC1551 with pMV306hsp+LuxG13); assay type: cell-based
[9] = tested on: Bacillus subtilis ATCC 23857; assay: MIC against B. subtilis, REMA; conditions: for MIC B. subtilis: REMA, visual, 24 h
[10] = tested on: Enterococcus faecalis ATCC 29212; assay: MIC against E. faecalis, REMA; conditions: for MIC E. faecalis: REMA, visual, 24 h
[11] = tested on: Staphylococcus aureus ATCC 25923; assay: MIC against S. aureus, REMA; conditions: visual, 24 h
[12] = determined visually by REMA assay, 14-day incubation, read-out: MIC Mtb H37Ra
[13] = read-out: MIC Mtb H37Ra, determined visually by REMA assay, 14-day incubation

Row | SMILES | MICD (Mtb-lux) [1] | R/D (MICR/MICD, Mtb-lux) [1] | SI (SID) J774 [2] | SI (SIR) J774 [2] | pIC50 [3] | SI (SID) HepG2 [5] | SI (SIR) HepG2 [5] | pIC50 (Cytotoxicity assay HepG2) | MIC C. difficile [7] | MICR (Mtb-lux) [8] [µg/mL] | also measured
1 | CC1(C)CCC[C@]2(C)[C@H]3C=C4C=C(O)C(=O)C=C4O[C@@]3(C)CC[C@@H]12 [Compound 1, (+)-Puupehenone] | 0.5 µg/mL | 6.0 | 46.4 | 7.7 | 4.63 | 141.2 | 23.5 | 4.15 | 2.0 µg/mL (≈ 6.09 µM) | 3.0 | MIC [4, 12]: 32.8 µg/mL (≈ 99.9 µM); Concentration at which TcdA was undetectable ([6]; NAP1, 48 h, western blot): 1; MIC [7]: 2 to 4 µg/mL (≈ 6.09 to 12.2 µM)
2 | CCC(=O)Oc1cc2c(cc1OC(=O)CC)[C@@H](OC)[C@@H]1[C@@]3(C)CCCC(C)(C)[C@@H]3CC[C@]1(C)O2 [Compound 16] | 1.7 µg/mL | 5.2 | 35.7 | 6.8 | 4.22 | > 117.6 | > 22.5 | < 3.70 |  | 8.9 | MIC [4, 12]: 23.6 µg/mL (≈ 49.9 µM)
3 | CO[C@@H]1c2cc(OC(=O)C(C)C)c(OC(=O)C(C)C)cc2O[C@@]2(C)CC[C@H]3C(C)(C)CCC[C@]3(C)[C@@H]12 [Compound 17] | 10.1 µg/mL | 0.9 |  |  |  |  |  |  |  | 8.6 | MIC [4, 12]: 25 µg/mL (≈ 49.9 µM)
4 | CO[C@@H]1c2cc(OC(=O)c3ccccc3)c(OC(=O)c3ccccc3)cc2O[C@@]2(C)CC[C@H]3C(C)(C)CCC[C@]3(C)[C@@H]12 [Compound 18] | 48.3 µg/mL |  |  |  |  |  |  |  |  | >200 | 
5 | CO[C@@H]1c2cc(OC(=O)C(C)(C)C)c(O)cc2O[C@@]2(C)CC[C@H]3C(C)(C)CCC[C@]3(C)[C@@H]12 [Compound 19, 15-α-methoxypuupehenol monopivalate] | 1.5 µg/mL |  | 37.6 | 4.4 | 4.25 | > 133.3 | > 15.7 | < 3.70 | 4.0 µg/mL (≈ 9 µM) | 12.7 | MIC ([9]; Bacillus subtilis, ATCC23857, 24 h, read-out: MIC B. subtilis): 22.2 µg/mL (≈ 50 µM); MIC ([10]; Enterococcus faecalis, ATCC29212, 24 h, read-out: MIC E. faecalis): 22.2 µg/mL (≈ 50 µM); MIC [4, 13]: 44.4 µg/mL (≈ 99.9 µM); Effect on TcdA toxin production [6]: did not appear to substantially change toxin production; MIC [7]: 2 to 4 µg/mL (≈ 4.5 to 9 µM)
6 | CC(=O)Oc1cc2c(cc1OC(C)=O)[C@@H](OC(C)=O)[C@@H]1[C@@]3(C)CCCC(C)(C)[C@@H]3CC[C@]1(C)O2 [Compound 20, 15-α-acetoxypuupehenol diacetate] | 1.4 µg/mL | 4.3 | > 142.3 | > 33.3 | < 3.70 | > 142.3 | > 33.3 | < 3.70 | 2.0 µg/mL | 6.0 | Cytotoxicity (IC50) J774 ([2]; J774A.1 cells): no cytotoxicity; MIC [4, 13]: 11.8 µg/mL; Cytotoxicity (IC50) HepG2 ([5]; HepG2 cells): no cytotoxicity; Effect on TcdA toxin production [6]: decreased the amount of toxin in a similar concentration-dependent manner; MIC [7]: 2 to 4 µg/mL
7 | CCC(=O)Oc1cc2c(cc1OC(=O)CC)[C@@H](OC(=O)CC)[C@@H]1[C@@]3(C)CCCC(C)(C)[C@@H]3CC[C@]1(C)O2 [Compound 21] | 1.0 µg/mL and 1 µg/mL | 2.8 | 26.4 | 9.4 | 4.58 | 64.2 | 22.9 | 4.19 |  | 2.8 | MIC [4, 13]: 12.9 µg/mL (≈ 25.1 µM); MIC Mtb H37Ra ([4]; determined visually by REMA assay, 14-day incubation): 12.85 µg/mL (≈ 25 µM)
8 | CC(C)C(=O)Oc1cc2c(cc1OC(=O)C(C)C)[C@@H](OC(=O)C(C)C)[C@@H]1[C@@]3(C)CCCC(C)(C)[C@@H]3CC[C@]1(C)O2 [Compound 22] | 88.8 µg/mL | 0.08 |  |  |  |  |  |  |  | 7.6 | 
9 | CC1(C)CCC[C@]2(C)[C@@H]1CC[C@]1(C)Oc3ccc(O)cc3C[C@@H]21 [Compound 31, (+)-Chromazonarol] | 32 µg/mL | 1.8 |  |  |  |  |  |  | inactive | 56.5 | MIC B. subtilis [9]: 8.6 µg/mL (≈ 27.3 µM); MIC E. faecalis [10]: inactive; MIC Mtb H37Ra [4]: 31.4 µg/mL (≈ 99.9 µM); MIC S. aureus [11]: inactive
10 | CC1(C)CCCC2(C)C1CCC(C)(O)C2Cc1ccc(OCc2ccccc2)cc1 (stereo not shown) [Compound 33] | 40.4 µg/mL | 1.4 |  |  |  |  |  |  |  | 57.5 | MIC Mtb H37Ra [4]: 40.6 µg/mL (≈ 99.8 µM)
11 | CC1(C)CCCC2(C)C1CCC(C)(O)C2Cc1ccc(O)cc1O (stereo not shown) [Compound 36] |  |  |  |  |  |  |  |  | 8.0 µg/mL (≈ 24.1 µM) |  | MIC B. subtilis [9]: 8.2 µg/mL and 8.3 µg/mL; MIC E. faecalis [10]: 16.2 µg/mL (≈ 48.7 µM); Effect on TcdA toxin production [6]: did not appear to substantially change toxin production; MIC S. aureus [11]: 16.6 µg/mL (≈ 49.9 µM)
12 | CC1(C)CCCC2(C)C1CCC(C)(O)C2Cc1ccc(O)c(O)c1 (stereo not shown) [Compound 38] | 42.0 µg/mL | 1.4 |  |  |  |  |  |  | did not exhibit any activity | 58.0 | MIC B. subtilis [9]: did not exhibit any activity; MIC E. faecalis [10]: did not exhibit any activity; MIC S. aureus [11]: did not exhibit any activity
13 | CC1(C)CCC[C@]2(C)[C@@H](Cc3cc(O)ccc3O)[C@](C)(O)CC[C@@H]12 [Compound 41, (+)-Yahazunol] |  |  |  |  |  |  |  |  | did not inhibit |  | MIC B. subtilis [9]: 33.2 µg/mL (≈ 99.9 µM); MIC S. aureus [11]: 33.2 µg/mL (≈ 99.9 µM)
14 | CN[C@H](CC(C)C)C(=O)N[C@H]1C(=O)N[C@@H](CC(N)=O)C(=O)N[C@H]2C(=O)N[C@H]3C(=O)N[C@H](C(=O)N[C@H](C(=O)O)c4cc(O)cc(O)c4-c4cc3ccc4O)[C@H](O)c3ccc(c(Cl)c3)Oc3cc2cc(c3O[C@@H]2O[C@H](CO)[C@@H](O)[C@H](O)[C@H]2O[C@H]2C[C@](C)(N)[C@H](O)[C@H](C)O2)Oc2ccc(cc2Cl)[C@H]1O [vancomycin, reference compound] |  |  |  |  |  |  |  |  |  |  | Effect on TcdA toxin production [6]: reduced toxin production in a concentration-dependent manner
